Non-standard residues stand in square brackets, D forms with d. Residues, ends and D or L forms follow the SMILES beside them. *: point of attachment. Benzenesulfonyl(4-OPh) = O=S(=O)(c1ccc(Oc2ccccc2)cc1)*; NMeI = CC[C@H](C)[C@H](NC)C(=O)O; NMeE = CN[C@@H](CCC(=O)O)C(=O)O; β3hP = O=C(O)C[C@@H]1CCCN1; Dab = NCC[C@H](N)C(=O)O; GABA = NCCCC(=O)O

The species entered for series [1] is Homo sapiens. The experiment in a line: Selectivity ratio of IC50 for recombinant human MMP12 to IC50 for recombinant human MMP2.
The nature of series [2]: Metabolic stability in rat hepatocytes assessed as parent compound remaining incubated for 1 hr by LC-MS/MS. The series is classed as ADME, cell-based, Hepatocyte. The following applies: read-out: Stability.
Series [3] deals with T1, Interstitial collagenase (Homo sapiens, UniProt P03956).
T1 sequence (P03956 whole entry): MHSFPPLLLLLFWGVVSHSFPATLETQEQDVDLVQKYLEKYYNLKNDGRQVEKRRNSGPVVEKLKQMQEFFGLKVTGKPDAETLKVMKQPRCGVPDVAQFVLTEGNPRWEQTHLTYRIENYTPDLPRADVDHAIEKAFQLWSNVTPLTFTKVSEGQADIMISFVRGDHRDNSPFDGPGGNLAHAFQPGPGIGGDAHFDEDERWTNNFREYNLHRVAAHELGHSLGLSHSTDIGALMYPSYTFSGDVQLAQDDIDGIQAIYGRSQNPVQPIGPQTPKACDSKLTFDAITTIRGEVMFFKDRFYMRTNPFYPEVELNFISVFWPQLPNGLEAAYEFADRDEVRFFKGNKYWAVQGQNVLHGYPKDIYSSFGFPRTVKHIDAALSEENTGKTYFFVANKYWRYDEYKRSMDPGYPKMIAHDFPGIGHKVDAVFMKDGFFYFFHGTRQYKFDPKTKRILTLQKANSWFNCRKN
The experiment in a line: Inhibition of recombinant human MMP1 using MOCAc-Lys-Pro-Leu-Gly-Leu-A2pr(Dnp)-Ala-Arg-NH2 as substrate preincubated for 15 mins followed by substrate addition by fluroscence based assay.

Series [4] concerns the target Stromelysin-1 (Homo sapiens, UniProt P08254). The experiment in a line: Inhibition of recombinant human MMP3 using MOCAc-Lys-Pro-Leu-Gly-Leu-A2pr(Dnp)-[…] as substrate preincubated for 15 mins followed by substrate addition by fluroscence based assay.
Series [5] deals with T2, Matrilysin (Homo sapiens, UniProt P09237).
T2 sequence (P09237 whole entry): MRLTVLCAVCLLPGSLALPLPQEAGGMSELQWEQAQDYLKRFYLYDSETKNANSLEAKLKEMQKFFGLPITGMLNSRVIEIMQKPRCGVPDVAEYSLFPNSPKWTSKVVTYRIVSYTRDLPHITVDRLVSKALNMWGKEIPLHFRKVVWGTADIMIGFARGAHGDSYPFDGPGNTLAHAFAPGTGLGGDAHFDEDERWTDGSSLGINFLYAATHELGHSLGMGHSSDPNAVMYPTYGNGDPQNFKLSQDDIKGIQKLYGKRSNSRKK

For series [6], the target named is Neutrophil collagenase (Homo sapiens, UniProt P22894).
Series [7] deals with Matrix metalloproteinase-9 (Homo sapiens, UniProt P14780).
Series [8] deals with Matrix metalloproteinase-14 (Homo sapiens, UniProt P50281). Kind of series: Inhibition of recombinant human MMP14 using MOCAc-Lys-Pro-Leu-Gly-Leu-A2pr(Dnp)-Ala-Arg-NH2 as substrate preincubated for 15 mins followed by substrate addition by fluroscence based assay.
Series [9] concerns the target MMP-1/MMP-2 (Homo sapiens) (UniProt P08253+P03956). The experiment in a line: Selectivity ratio of IC50 for recombinant human MMP1 to IC50 for recombinant human MMP2. The series is classed as protein assay.
The species entered for series [10] is Homo sapiens. The experiment in a line: Selectivity ratio of IC50 for recombinant human MMP3 to IC50 for recombinant human MMP2.
For series [11], the species on record is Homo sapiens. The experiment in a line: Selectivity ratio of IC50 for recombinant human MMP7 to IC50 for recombinant human MMP2.
For series [12], the species on record is Homo sapiens. The experiment in a line: Selectivity ratio of IC50 for recombinant human MMP8 to IC50 for recombinant human MMP2.
Series [13] deals with MMP-2/MMP-9 (Homo sapiens) (UniProt P08253+P14780). Kind of series: Selectivity ratio of IC50 for recombinant human MMP9 to IC50 for recombinant human MMP2. The series is classed as protein assay.
The target in series [14] is MMP-2/MMP-14 (Homo sapiens) (UniProt P50281+P08253). Kind of series: Selectivity ratio of IC50 for recombinant human MMP14 to IC50 for recombinant human MMP2. The series is classed as protein assay.
Series [15] in a line: Clearance in fasted Sprague-Dawley rat at 0.4 mg/kg, iv by LC-MS/MS analysis. It is filed as ADME, organism-based. Conditions: in vivo.
Series [16] in a line: Volume of distribution at steady state in fasted Sprague-Dawley rat at 0.4 mg/kg, iv by LC-MS/MS analysis. It is filed as ADME, organism-based. Conditions: in vivo, read-out: Vdss.
Series [17] in a line: Half life in fasted Sprague-Dawley rat at 0.4 mg/kg, iv by LC-MS/MS analysis. It is filed as ADME, organism-based. The following applies: in vivo.
Series [18] has as its target 72 kDa type IV collagenase (Homo sapiens, UniProt P08253).
For series [19], the target named is Collagenase 3 (Homo sapiens, UniProt P45452).
A short description of series [20]: physchem. The following applies: buffer, pH 7.4.

Chain of 72 kDa type IV collagenase (P08253 whole entry): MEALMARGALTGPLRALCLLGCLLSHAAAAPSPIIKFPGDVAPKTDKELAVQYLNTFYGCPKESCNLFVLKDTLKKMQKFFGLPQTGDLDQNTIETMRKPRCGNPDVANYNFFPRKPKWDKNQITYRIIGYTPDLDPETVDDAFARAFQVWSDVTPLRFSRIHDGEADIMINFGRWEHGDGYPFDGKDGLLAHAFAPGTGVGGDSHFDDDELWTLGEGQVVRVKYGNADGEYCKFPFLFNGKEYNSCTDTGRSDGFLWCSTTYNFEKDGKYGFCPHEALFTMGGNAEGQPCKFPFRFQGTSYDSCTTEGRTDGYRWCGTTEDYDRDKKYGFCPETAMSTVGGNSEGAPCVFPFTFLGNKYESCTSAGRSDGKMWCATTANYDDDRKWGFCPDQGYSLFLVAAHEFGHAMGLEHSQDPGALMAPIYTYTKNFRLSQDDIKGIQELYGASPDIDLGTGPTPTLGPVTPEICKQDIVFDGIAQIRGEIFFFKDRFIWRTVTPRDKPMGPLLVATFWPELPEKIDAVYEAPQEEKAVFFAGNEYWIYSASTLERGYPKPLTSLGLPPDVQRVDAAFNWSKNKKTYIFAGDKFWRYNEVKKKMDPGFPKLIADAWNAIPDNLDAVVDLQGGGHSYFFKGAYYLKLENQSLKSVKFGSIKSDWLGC
Chain of Stromelysin-1 (P08254 whole entry): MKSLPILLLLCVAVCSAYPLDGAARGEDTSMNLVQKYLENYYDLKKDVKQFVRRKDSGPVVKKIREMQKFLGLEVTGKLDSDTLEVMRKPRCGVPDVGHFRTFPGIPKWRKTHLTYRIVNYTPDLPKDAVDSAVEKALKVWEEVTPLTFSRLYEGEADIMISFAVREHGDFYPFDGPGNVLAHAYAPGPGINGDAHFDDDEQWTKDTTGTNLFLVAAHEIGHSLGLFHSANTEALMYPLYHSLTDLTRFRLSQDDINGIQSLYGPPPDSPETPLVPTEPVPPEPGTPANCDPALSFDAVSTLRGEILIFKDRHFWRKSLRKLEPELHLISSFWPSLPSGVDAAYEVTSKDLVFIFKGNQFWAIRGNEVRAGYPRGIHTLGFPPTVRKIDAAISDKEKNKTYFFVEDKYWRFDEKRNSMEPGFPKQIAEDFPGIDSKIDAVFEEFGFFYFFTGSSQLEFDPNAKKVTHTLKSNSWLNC
Chain of Matrix metalloproteinase-9 (P14780 whole entry): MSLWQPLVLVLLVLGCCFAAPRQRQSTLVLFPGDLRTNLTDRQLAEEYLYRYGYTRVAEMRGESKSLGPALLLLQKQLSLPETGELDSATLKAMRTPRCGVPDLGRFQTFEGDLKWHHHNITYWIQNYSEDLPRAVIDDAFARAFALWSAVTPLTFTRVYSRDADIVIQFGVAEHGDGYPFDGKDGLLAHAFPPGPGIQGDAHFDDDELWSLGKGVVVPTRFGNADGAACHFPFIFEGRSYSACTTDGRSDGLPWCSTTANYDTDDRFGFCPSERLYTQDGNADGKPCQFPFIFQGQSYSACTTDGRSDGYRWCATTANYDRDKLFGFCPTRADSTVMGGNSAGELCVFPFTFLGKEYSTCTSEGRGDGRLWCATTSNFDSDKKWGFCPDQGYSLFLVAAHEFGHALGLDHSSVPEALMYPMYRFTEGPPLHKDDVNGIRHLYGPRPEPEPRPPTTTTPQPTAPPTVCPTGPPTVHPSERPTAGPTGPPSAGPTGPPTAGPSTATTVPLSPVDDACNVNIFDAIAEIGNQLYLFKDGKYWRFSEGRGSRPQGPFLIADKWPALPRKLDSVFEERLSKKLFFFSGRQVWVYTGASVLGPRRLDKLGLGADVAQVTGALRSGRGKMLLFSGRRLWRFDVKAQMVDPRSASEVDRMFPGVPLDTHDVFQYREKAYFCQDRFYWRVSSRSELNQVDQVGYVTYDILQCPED
Chain of Neutrophil collagenase (P22894 whole entry): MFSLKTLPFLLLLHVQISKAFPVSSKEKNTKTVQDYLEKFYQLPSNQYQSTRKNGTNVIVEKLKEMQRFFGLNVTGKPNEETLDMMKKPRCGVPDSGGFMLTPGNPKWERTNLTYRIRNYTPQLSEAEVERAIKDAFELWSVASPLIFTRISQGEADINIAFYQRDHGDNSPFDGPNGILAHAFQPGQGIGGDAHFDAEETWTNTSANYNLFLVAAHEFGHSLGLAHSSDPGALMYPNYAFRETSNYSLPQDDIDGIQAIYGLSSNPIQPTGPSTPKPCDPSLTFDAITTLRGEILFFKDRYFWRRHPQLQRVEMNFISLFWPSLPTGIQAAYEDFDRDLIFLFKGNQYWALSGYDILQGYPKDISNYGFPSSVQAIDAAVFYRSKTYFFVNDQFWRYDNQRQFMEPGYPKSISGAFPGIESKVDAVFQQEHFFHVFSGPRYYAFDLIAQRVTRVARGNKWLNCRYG
Chain of MMP-1/MMP-2 (Homo sapiens) (P08253 whole entry, looked up, one chain of several): as the sequence (P08253 whole entry) above

For orientation: IC50 means the concentration that gives 50% inhibition. In general, clearance refers to the volume of plasma or blood freed of the substance per unit of time. Lower therefore signals a low capacity for elimination. The half-life is the time needed for the level to fall by half in the phase considered. A higher half-life goes with slow decline. Broadly, the logD is the decadic logarithm of the distribution of all forms, ionised or not, between an organic phase and buffer at a given pH. Read a low logD as a more hydrophilic compound. For the compound `CC[C@H](C)[C@@H](C(=O)N1CCC[C@H]1CC(N)=O)N(C)C(=O)[C@H](CC(C)C)NC(=O)[C@H](C)NC(=O)[C@H](CC(=O)O)NC(=O)[C@H](CC(N)=O)NC(=O)CCCNS(=O)(=O)c1ccc(Oc2ccccc2)cc1` ({Benzenesulfonyl(4-OPh)-GABA}-NDAL[NMeI][β3hP]-NH2), the Ratio IC50 in series [1] was 85; in series [9] it was 182000; in [10], over 182000; in series [11] it was 38100; in [12], 4740; in [13] it was 3290. Moreover, the Ratio IC50 in series [14] worked out at 200. Moreover, the remaining at 1 h, 1 µM in series [2] stood at 68.4%. Moreover, the IC50 in series [3] is over 10000 nM; in series [4], over 10000 nM; in series [5], 2100 nM; in series [6], 261 nM; in series [7], 181 nM; in [8], 11 nM. Moreover, the figures for the IC50 in [18] and in [19] were 0.055 nM and 21 nM, respectively. The clearance in series [15] was 74.5 mL/min/kg. Also, the Vd in series [16] is 0.882 L/kg. The compound also gave a half-life in series [17] of 8 min. This compound displayed a logD in series [20] of 1.53.

Regarding `CC(C)C[C@H](NC(=O)[C@H](CCN)NC(=O)[C@H](CC(=O)O)NC(=O)[C@H](CC(N)=O)NC(=O)CCCNS(=O)(=O)c1ccc(Oc2ccccc2)cc1)C(=O)N(C)[C@@H](CCC(=O)O)C(=O)N1CCC[C@H]1CC(N)=O` ({Benzenesulfonyl(4-OPh)-GABA}-ND[Dab]L[NMeE][β3hP]-NH2), the Ratio IC50 in series [1] is 7240; in series [9] it was over 147000; in [10], over 147000; in series [11] it was over 147000; in series [12] it was 86500; in series [13], over 147000. Further, in [14], the Ratio IC50 amounted to 7740. Further, the remaining at 1 h, 1 µM in series [2] came to 91.7%. Further, the IC50 is over 10000 nM in [3]; over 10000 nM in series [4]; over 10000 nM in series [5]; 5880 nM in [6]; over 10000 nM in series [7]; 526 nM in [8]. In addition, the IC50 in series [18] was found to be 0.068 nM; in series [19] it was 364 nM. In series [15], the clearance is 20.2 mL/min/kg. In [16], the Vd is 0.275 L/kg. The compound also displayed a half-life in series [17] of 9 min. Besides, the logD in series [20] was 1.26.

For the origin of these results see ChEMBL document CHEMBL5154944, “Discovery of Aryloxyphenyl-Heptapeptide Hybrids as Potent and Selective Matrix Metalloproteinase-2 Inhibitors for the Treatment of Idiopathic Pulmonary Fibrosis” (J Med Chem, 2022).
